Earlier results on 2 molecules are cited in US20250031692A1, “HIGH LOAD SUSPENSION CONCENTRATE COMPOSITIONS” (ADAMA AGAN LTD., priority 2021, published 2025).

SMILES strings stand for the structures.

The subject of data set [1] is grass and broadleaf weeds. The conditions noted are these: at lower application rates compared with other commercial herbicides.
Data set [2] concerns Echinochloa spp. and other annual weeds. The note with it: 150-200 g a.i./ha; long residual activity.
Data set [3] deals with VLCFAE activity of the microsomal fraction of etiolated barnyard millet seedlings.
Data set [4] deals with T1, recombinant Fatty Acid Elongation 1 (FAE1) of Arabidopsis (Arabidopsis thaliana, UniProt Q38860).
T1 sequence (Q38860 1-506): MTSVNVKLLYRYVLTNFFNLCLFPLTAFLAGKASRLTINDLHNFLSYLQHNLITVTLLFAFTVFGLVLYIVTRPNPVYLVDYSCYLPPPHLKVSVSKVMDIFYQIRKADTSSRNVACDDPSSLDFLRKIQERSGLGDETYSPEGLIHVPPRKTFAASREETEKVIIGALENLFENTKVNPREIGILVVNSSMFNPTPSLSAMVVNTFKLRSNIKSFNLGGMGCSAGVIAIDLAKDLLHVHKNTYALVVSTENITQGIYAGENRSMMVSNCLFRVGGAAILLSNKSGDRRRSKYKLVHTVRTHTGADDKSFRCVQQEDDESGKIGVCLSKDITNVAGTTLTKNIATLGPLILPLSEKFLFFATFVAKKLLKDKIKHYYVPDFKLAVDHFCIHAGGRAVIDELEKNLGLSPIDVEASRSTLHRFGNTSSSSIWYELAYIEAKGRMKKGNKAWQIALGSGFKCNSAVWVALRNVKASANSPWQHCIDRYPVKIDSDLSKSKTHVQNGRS

Take `Cn1nc(C(F)(F)F)c(CS(=O)(=O)C2=NOC(C)(C)C2)c1OC(F)F` [Pyroxasulfone]: in data set [1], the herbicidal activity result is reported as “excellent herbicidal activity”.
As for `CCOc1cc(Cl)c(CS(=O)(=O)C2=NOC(C)(C)C2)cc1Cl` [Fenoxasulfone, 3-[(2,5-dichloro-4-ethoxyphenyl)methylsulfonyl]-5,5-dimethyl-4H-1,2-oxazole], the herbicidal activity result in data set [2] is on record as “excellent herbicidal activity”. Moreover, the “inhibition of VLCFAE activity” value is recorded as “inhibited by fenoxasulfone in a time-independent manner” in data set [3] and “inhibited by fenoxasulfone in a time-dependent manner” in data set [4].
